Source: patent publication US9963445B2, “Chemical compounds” (SYNGENTA PARTICIPATIONS AG, priority 2013, dated 2018)

Tests used:
Format in all cases: in vivo
[1] = tested on: Abutilon theophrasti; experiment: Pre-emergence herbicidal activity, glasshouse pot test; conditions: pre-emergence spray, rate 1000 g/ha, evaluated after 13 days, scale 0-5
Outline: (§1)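 Sown pots sprayed pre-emergence (day 1), acetone/water + 0.5% Tween 20 vehicle. Damage rated 0–5 at 13 days.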

[2] = tested on: Alopecurus myosuroides; experiment: as above; conditions: pre-emergence spray, rate 1000 g/ha, evaluated after 13 days, scale 0-5
Outline: as §1

[3] = tested on: Amaranthus retroflexus; experiment: as above; conditions: pre-emergence spray, rate 1000 g/ha, evaluated after 13 days, scale 0-5
Outline: as §1

[4] = tested on: Echinochloa crus-galli; experiment: as above; conditions: pre-emergence spray, rate 1000 g/ha, evaluated after 13 days, scale 0-5
Outline: as §1

[5] = tested on: Setaria faberi; experiment: as above; conditions: pre-emergence spray, rate 1000 g/ha, evaluated after 13 days, scale 0-5
Outline: as §1

[6] = tested on: zea mays; experiment: as above; conditions: pre-emergence spray, rate 1000 g/ha, evaluated after 13 days, scale 0-5
Outline: as §1

[7] = tested on: Abutilon theophrasti; experiment: Post-emergence herbicidal activity, glasshouse pot test; parameters: key: 0 = no damage to plant, 5 = total damage to plant; conditions: Application post-emergence, rate 1000 g/ha, evaluated after 13 days
Outline: (§2)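 Pot-grown seedlings, sown in standard soil, were sprayed 8 days after sowing and kept in a controlled glasshouse (24/16 °C, 14 h photoperiod, 65% humidity). Injury was assessed visually 13 days later on a scale where 5 means total damage.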

[8] = tested on: Alopecurus myosuroides; experiment: as above; parameters: key: 0 = no damage to plant, 5 = total damage to plant; conditions: Application post-emergence, rate 1000 g/ha, evaluated after 13 days
Outline: as §2

[9] = tested on: Amaranthus retroflexus; experiment: as above; parameters: key: 0 = no damage to plant, 5 = total damage to plant; conditions: Application post-emergence, rate 1000 g/ha, evaluated after 13 days
Outline: as §2

[10] = tested on: Echinochloa crus-galli; experiment: as above; parameters: key: 0 = no damage to plant, 5 = total damage to plant; conditions: Application post-emergence, rate 1000 g/ha, evaluated after 13 days
Outline: as §2

[11] = tested on: Setaria faberi; experiment: as above; parameters: key: 0 = no damage to plant, 5 = total damage to plant; conditions: Application post-emergence, rate 1000 g/ha, evaluated after 13 days
Outline: as §2

[12] = tested on: zea mays; experiment: as above; parameters: key: 0 = no damage to plant, 5 = total damage to plant; conditions: Application post-emergence, rate 1000 g/ha, evaluated after 13 days
Outline: as §2

SMILES	ABUTH damage score, application pre-emergence [1]	ALOMY damage score, application pre-emergence [2]	AMARE damage score, application pre-emergence [3]	ECHCG damage score, application pre-emergence [4]	SETFA damage score, application pre-emergence [5]	ZEAMX damage score, application pre-emergence [6]	ABUTH herbicidal damage score [7]	ALOMY herbicidal damage score [8]	AMARE herbicidal damage score [9]	ECHCG herbicidal damage score [10]	SETFA herbicidal damage score [11]	ZEAMX herbicidal damage score [12]
COC1=C(C)C(O)N(c2cc(C(F)(F)F)c(OC)cn2)C1=O (stereo not drawn) [AI15]	2	4	5	4	5	3	5	5	5	5	5	4
CC1=C(Cl)C(=O)N(c2cc(C(C)(C)F)c(Cl)nn2)C1O (stereo not drawn) [BF11]	0	0	0	0	0	0	2	2	2	3	3	1
COC1=C(C)C(O)N(c2ccc(C(=O)NC(C)(C)C#N)cn2)C1=O (stereo not drawn) [AI25]	4	4	5	3	4	2	5	5	5	5	5	3
CC1=C(Cl)C(=O)N(c2ccc(C(C)(C)C#N)cn2)C1O (stereo not drawn) [AF102]	5	3	5	5	4	3	5	5	5	5	5	5
CC1=C(Cl)C(=O)N(c2ncc(C(F)(F)F)cc2F)C1O (stereo not drawn) [AF63]	0	0	0	0	0	0	1	1	0	1	1	0
CCOC(=O)c1cnc(N2C(=O)C(OC)=C(C)C2O)nc1C(F)(F)F (stereo not drawn) [DI2]	5	4	5	5	5	3	5	4	5	5	5	4
CC1=C(Br)C(=O)N(c2cc(C(F)(F)F)ncn2)C1O (stereo not drawn) [CG1]	4	3	1	5	4	0	4	5	2	5	5	3
CC1=C(Cl)C(=O)N(c2cc(/C=C/C(C)(C)C)ccn2)C1O (stereo not drawn) [AF26]	0	0	0	0	0	0	1	0	1	2	0	2
CC1=C(Cl)C(=O)N(c2cc(C(C)C)c(C(=O)OC(C)C)cn2)C1O (stereo not drawn) [AF23]	1	4	5	5	2	1	4	4	5	5	4	3
CC1=C(Cl)C(=O)N(c2cc(OC(F)(F)F)ccn2)C1O (stereo not drawn) [AF74]	2	3	5	4	4	2	5	4	5	5	5	2
CC1=C(Cl)C(=O)N(c2nccc(C(C)(C)C#N)n2)C1O (stereo not drawn) [DF5]	5	4	5	5	4	3	5	4	5	5	4	3
COc1ccc(N2C(=O)C(Cl)=C(C)C2O)nn1 (stereo not drawn) [BF8]	5	2	1	4	3	0	5	4	5	5	5	1
